{"source": "ChEMBL document CHEMBL4396945", "about": "“Hybrid molecules of scutellarein and tertramethylpyrazine's active metabolites for ischemic stroke” (Bioorg Med Chem Lett, 2019)", "key": {"[1]": {"experiment": "Lipophilicity, logP of compound", "format": "physicochemical", "details": "octanol/water"}, "Plasma [2]": {"tested_on": "Plasma", "experiment": "Anticoagulant activity in rabbit platelet poor plasma assessed as prothrombin time at 100 uM incubated for 3 mins by coagulometric analysis (reference value: 4.32 +/- 0.28 sec)", "format": "functional, Oryctolagus cuniculus"}, "Rattus norvegicus [3]": {"tested_on": "Rattus norvegicus", "experiment": "Neuroprotective activity in Sprague-Dawley rat middle cerebral artery occlusion-induced ischemia-reperfusion injury model assessed as reduction in nuclear pyknosis of hippocampus CA1 at 0.35 to 1.40 mmol/kg, ig administered for 7 days by HE staining based assay", "format": "functional, organism-based"}, "Plasma [4]": {"tested_on": "Plasma", "experiment": "Anticoagulant activity in rabbit platelet poor plasma assessed as thrombin time at 100 uM incubated for 3 mins by coagulometric analysis (reference value: 12.58 +/- 0.76 sec)", "format": "functional, Oryctolagus cuniculus"}, "[5]": {"experiment": "Solubility in water", "format": "physicochemical"}, "Rattus norvegicus [6]": {"tested_on": "Rattus norvegicus", "experiment": "Neuroprotective activity in Sprague-Dawley rat middle cerebral artery occlusion-induced ischemia-reperfusion injury model assessed as decrease in irregular cell morphology of hippocampus CA1 at 0.35 to 1.40 mmol/kg, ig administered for 7 days by HE staining based assay", "format": "functional, organism-based"}, "Rattus norvegicus [7]": {"tested_on": "Rattus norvegicus", "experiment": "Neuroprotective activity in Sprague-Dawley rat middle cerebral artery occlusion-induced ischemia-reperfusion injury model assessed as reduction in dissolution of hippocampus CA1 at 0.35 to 1.40 mmol/kg, ig administered for 7 days by HE staining based assay", "format": "functional, organism-based"}, "Plasma [8]": {"tested_on": "Plasma", "experiment": "Anticoagulant activity in rabbit platelet poor plasma assessed as fibrinogen level at 100 uM incubated for 3 mins by coagulometric analysis (reference value: 14.24 +/- 0.67 g/l)", "format": "functional, Oryctolagus cuniculus"}, "Rattus norvegicus [9]": {"tested_on": "Rattus norvegicus", "experiment": "Neuroprotective activity in Sprague-Dawley rat middle cerebral artery occlusion-induced ischemia-reperfusion injury model assessed as reduction in hyperchromic of hippocampus CA1 at 0.35 to 1.40 mmol/kg, ig administered for 7 days by HE staining based assay", "format": "functional, organism-based"}, "Rattus norvegicus [10]": {"tested_on": "Rattus norvegicus", "experiment": "Neuroprotective activity in ig dosed Sprague-Dawley rat model of middle cerebral artery occlusion-induced ischemia-reperfusion injury assessed as decrease in infarct area by TTC staining based assay", "format": "functional, organism-based"}, "[11]": {"experiment": "Stability in pH 7.4 phosphate buffer assessed as half life", "format": "physicochemical"}, "PC-12": {"tested_on": "PC-12", "experiment": "Antioxidant activity against H2O2-induced oxidative stress in rat PC12 cells assessed as cell viability preincubated for 24 hrs followed by H2O2 stimulation further incubated for 5 hrs by MTS assay", "format": "functional, cell-based"}, "Plasma [12]": {"tested_on": "Plasma", "experiment": "Anticoagulant activity in rabbit platelet poor plasma assessed as activated partial thromboplastin time at 100 uM incubated for 3 mins by coagulometric analysis (reference value: 19.13 +/- 0.54 sec)", "format": "functional, Oryctolagus cuniculus"}, "Rattus norvegicus [13]": {"tested_on": "Rattus norvegicus", "experiment": "Neuroprotective activity in Sprague-Dawley rat model of middle cerebral artery occlusion-induced ischemia-reperfusion injury assessed as decrease in infarct area at 0.7 mmol/kg, ig for 7 days by TTC staining based assay", "format": "functional, organism-based"}}, "note": "Activity calls are given as the source filed them. The rule behind the calls is not given here.", "data": [{"compound": "Cc1nc(C)c(COC(=O)N[C@H](C)C(=O)Oc2ccc(-c3cc(=O)c4c(O)c(O)c(O)cc4o3)cc2)nc1C", "values": [{"measurement": "logP", "setting": "[1]", "value": 1.53}, {"measurement": "PT", "setting": "Plasma [2]", "value": 7.72, "unit": "s"}, {"measurement": "Activity", "setting": "Rattus norvegicus [3]", "value": "Active"}, {"measurement": "TT", "setting": "Plasma [4]", "value": 36.25, "unit": "s"}, {"measurement": "solubility", "setting": "[5]", "value": 799, "unit": "µg/mL"}, {"measurement": "Activity", "setting": "Rattus norvegicus [6]", "value": "Active"}, {"measurement": "Activity", "setting": "Rattus norvegicus [7]", "value": "Active"}, {"measurement": "Fibrinogen level", "setting": "Plasma [8]", "value": 2.68, "unit": "g/L"}, {"measurement": "Activity", "setting": "Rattus norvegicus [9]", "value": "Active"}, {"measurement": "Activity", "setting": "Rattus norvegicus [10]", "value": "Dose-dependent effect"}, {"measurement": "half-life", "setting": "[11]", "value": 27.8, "unit": "h"}, {"measurement": "Activity", "setting": "PC-12", "value": "Dose-dependent effect"}, {"measurement": "APTT", "setting": "Plasma [12]", "value": 48.21, "unit": "s"}]}, {"compound": "Cc1nc(C)c(COC(=O)N[C@@H](C(=O)Oc2ccc(-c3cc(=O)c4c(O)c(O)c(O)cc4o3)cc2)C(C)C)nc1C", "values": [{"measurement": "logP", "setting": "[1]", "value": 1.04}, {"measurement": "solubility", "setting": "[5]", "value": 252, "unit": "µg/mL"}, {"measurement": "half-life", "setting": "[11]", "value": 45.6, "unit": "h"}, {"measurement": "Activity", "setting": "PC-12", "value": "Dose-dependent effect"}]}, {"compound": "CC[C@H](C)[C@@H](NC(=O)OCc1nc(C)c(C)nc1C)C(=O)Oc1ccc(-c2cc(=O)c3c(O)c(O)c(O)cc3o2)cc1", "values": [{"measurement": "logP", "setting": "[1]", "value": 2.83}, {"measurement": "PT", "setting": "Plasma [2]", "value": 8.32, "unit": "s"}, {"measurement": "TT", "setting": "Plasma [4]", "value": 38.42, "unit": "s"}, {"measurement": "solubility", "setting": "[5]", "value": 234, "unit": "µg/mL"}, {"measurement": "Fibrinogen level", "setting": "Plasma [8]", "value": 2.54, "unit": "g/L"}, {"measurement": "half-life", "setting": "[11]", "value": 64.8, "unit": "h"}, {"measurement": "Activity", "setting": "PC-12", "value": "Dose-dependent effect"}, {"measurement": "APTT", "setting": "Plasma [12]", "value": 49.28, "unit": "s"}]}, {"compound": "O=c1cc(-c2ccc(O)cc2)oc2cc(O)c(O)c(O)c12", "note": "[SCUTELLAREIN]", "values": [{"measurement": "logP", "setting": "[1]", "value": 0.96}, {"measurement": "PT", "setting": "Plasma [2]", "value": 5.72, "unit": "s"}, {"measurement": "TT", "setting": "Plasma [4]", "value": 18.12, "unit": "s"}, {"measurement": "solubility", "setting": "[5]", "value": 14.4, "unit": "µg/mL"}, {"measurement": "Fibrinogen level", "setting": "Plasma [8]", "value": 7.41, "unit": "g/L"}, {"measurement": "Activity", "setting": "Rattus norvegicus [13]", "value": "Active"}, {"measurement": "half-life", "setting": "[11]", "value": 5.5, "unit": "h"}, {"measurement": "Activity", "setting": "PC-12", "value": "Dose-dependent effect"}, {"measurement": "APTT", "setting": "Plasma [12]", "value": 34.26, "unit": "s"}]}, {"compound": "Cc1nc(C)c(C(=O)N[C@H](CC(C)C)C(=O)Oc2ccc(-c3cc(=O)c4c(O)c(O)c(O)cc4o3)cc2)nc1C", "values": [{"measurement": "logP", "setting": "[1]", "value": 0.91}, {"measurement": "solubility", "setting": "[5]", "value": 26, "unit": "µg/mL"}, {"measurement": "half-life", "setting": "[11]", "value": 69.2, "unit": "h"}, {"measurement": "Activity", "setting": "PC-12", "value": "Dose-dependent effect"}]}, {"compound": "Cc1nc(C)c(C)nc1C", "note": "[LIGUSTRAZINE]", "values": [{"measurement": "logP", "setting": "[1]", "value": 1.26}, {"measurement": "PT", "setting": "Plasma [2]", "value": 6.13, "unit": "s"}, {"measurement": "TT", "setting": "Plasma [4]", "value": 25.36, "unit": "s"}, {"measurement": "solubility", "setting": "[5]", "value": 4500, "unit": "µg/mL"}, {"measurement": "Fibrinogen level", "setting": "Plasma [8]", "value": 3.28, "unit": "g/L"}, {"measurement": "Activity", "setting": "Rattus norvegicus [13]", "value": "Active"}, {"measurement": "Activity", "setting": "PC-12", "value": "Dose-dependent effect"}, {"measurement": "APTT", "setting": "Plasma [12]", "value": 39.24, "unit": "s"}]}, {"compound": "Cc1nc(C)c(C(=O)Oc2ccc(-c3cc(=O)c4c(O)c(O)c(O)cc4o3)cc2)nc1C", "values": [{"measurement": "logP", "setting": "[1]", "value": 3.01}, {"measurement": "solubility", "setting": "[5]", "value": 12.1, "unit": "µg/mL"}, {"measurement": "half-life", "setting": "[11]", "value": 15.1, "unit": "h"}, {"measurement": "Activity", "setting": "PC-12", "value": "Dose-dependent effect"}]}, {"compound": "Cc1nc(C)c(COC(=O)COc2ccc(-c3cc(=O)c4c(O)c(O)c(O)cc4o3)cc2)nc1C", "values": [{"measurement": "logP", "setting": "[1]", "value": 2.39}, {"measurement": "solubility", "setting": "[5]", "value": 30.6, "unit": "µg/mL"}, {"measurement": "half-life", "setting": "[11]", "value": 21.4, "unit": "h"}, {"measurement": "Activity", "setting": "PC-12", "value": "Dose-dependent effect"}]}, {"compound": "Cc1nc(C)c(C(=O)N[C@@H](C(=O)Oc2ccc(-c3cc(=O)c4c(O)c(O)c(O)cc4o3)cc2)C(C)C)nc1C", "values": [{"measurement": "logP", "setting": "[1]", "value": 1.38}, {"measurement": "solubility", "setting": "[5]", "value": 240, "unit": "µg/mL"}, {"measurement": "half-life", "setting": "[11]", "value": "> 72", "unit": "h"}, {"measurement": "Activity", "setting": "PC-12", "value": "Dose-dependent effect"}]}, {"compound": "Cc1nc(C)c(COC(=O)N[C@H](CC(C)C)C(=O)Oc2ccc(-c3cc(=O)c4c(O)c(O)c(O)cc4o3)cc2)nc1C", "values": [{"measurement": "logP", "setting": "[1]", "value": 1.69}, {"measurement": "PT", "setting": "Plasma [2]", "value": 8.57, "unit": "s"}, {"measurement": "TT", "setting": "Plasma [4]", "value": 37.91, "unit": "s"}, {"measurement": "solubility", "setting": "[5]", "value": 221, "unit": "µg/mL"}, {"measurement": "Fibrinogen level", "setting": "Plasma [8]", "value": 2.47, "unit": "g/L"}, {"measurement": "half-life", "setting": "[11]", "value": 57.2, "unit": "h"}, {"measurement": "Activity", "setting": "PC-12", "value": "Dose-dependent effect"}, {"measurement": "APTT", "setting": "Plasma [12]", "value": 47.56, "unit": "s"}]}, {"compound": "Cc1nc(C)c(COC(=O)CCCOc2ccc(-c3cc(=O)c4c(O)c(O)c(O)cc4o3)cc2)nc1C", "values": [{"measurement": "logP", "setting": "[1]", "value": 1.48}, {"measurement": "solubility", "setting": "[5]", "value": 356, "unit": "µg/mL"}, {"measurement": "half-life", "setting": "[11]", "value": 19.8, "unit": "h"}, {"measurement": "Activity", "setting": "PC-12", "value": "Dose-dependent effect"}]}, {"compound": "Cc1nc(C)c(C(=O)N[C@@H](C(=O)N[C@@H](C)C(=O)Oc2ccc(-c3cc(=O)c4c(O)c(O)c(O)cc4o3)cc2)C(C)C)nc1C", "values": [{"measurement": "logP", "setting": "[1]", "value": 1.98}, {"measurement": "solubility", "setting": "[5]", "value": 856, "unit": "µg/mL"}, {"measurement": "half-life", "setting": "[11]", "value": 51.6, "unit": "h"}, {"measurement": "Activity", "setting": "PC-12", "value": "Dose-dependent effect"}]}, {"compound": "Cc1nc(C)c(C(=O)NCC(=O)Oc2ccc(-c3cc(=O)c4c(O)c(O)c(O)cc4o3)cc2)nc1C", "values": [{"measurement": "logP", "setting": "[1]", "value": 2.8}, {"measurement": "PT", "setting": "Plasma [2]", "value": 6.39, "unit": "s"}, {"measurement": "TT", "setting": "Plasma [4]", "value": 32.16, "unit": "s"}, {"measurement": "solubility", "setting": "[5]", "value": 628, "unit": "µg/mL"}, {"measurement": "Fibrinogen level", "setting": "Plasma [8]", "value": 3.12, "unit": "g/L"}, {"measurement": "half-life", "setting": "[11]", "value": "> 72", "unit": "h"}, {"measurement": "Activity", "setting": "PC-12", "value": "Dose-dependent effect"}, {"measurement": "APTT", "setting": "Plasma [12]", "value": 43.57, "unit": "s"}]}, {"compound": "Cc1nc(C)c(COC(=O)NCC(=O)Oc2ccc(-c3cc(=O)c4c(O)c(O)c(O)cc4o3)cc2)nc1C", "values": [{"measurement": "logP", "setting": "[1]", "value": 2.1}, {"measurement": "solubility", "setting": "[5]", "value": 454, "unit": "µg/mL"}, {"measurement": "half-life", "setting": "[11]", "value": 14.3, "unit": "h"}, {"measurement": "Activity", "setting": "PC-12", "value": "Dose-dependent effect"}]}]}
